Assay results from ChEMBL document CHEMBL1268885, “Subtype-selective Na(v)1.8 sodium channel blockers: identification of potent, orally active nicotinamide derivatives” (Bioorg Med Chem Lett, 2010).
≈ marks a conversion by molar mass, not a printed value.

Legend:
[1] = target: Sodium channel protein type 10 subunit alpha (Homo sapiens, UniProt Q9Y5Y9); test: Inhibition of human NaV1.8 by electrophysiology
[2] = target: Sodium channel protein type 2 subunit alpha (Homo sapiens, UniProt Q99250); test: Inhibition of human NaV1.2 by electrophysiology
[3] = target: Sodium channel protein type 10 subunit alpha (Rattus norvegicus, UniProt Q62968); test: Inhibition of tetrodotoxin-resistant NaV1.8 in rat DRG neuron by electrophysiology
Chain of Sodium channel protein type 10 subunit alpha (Rattus norvegicus, UniProt Q62968) (Q62968 whole entry): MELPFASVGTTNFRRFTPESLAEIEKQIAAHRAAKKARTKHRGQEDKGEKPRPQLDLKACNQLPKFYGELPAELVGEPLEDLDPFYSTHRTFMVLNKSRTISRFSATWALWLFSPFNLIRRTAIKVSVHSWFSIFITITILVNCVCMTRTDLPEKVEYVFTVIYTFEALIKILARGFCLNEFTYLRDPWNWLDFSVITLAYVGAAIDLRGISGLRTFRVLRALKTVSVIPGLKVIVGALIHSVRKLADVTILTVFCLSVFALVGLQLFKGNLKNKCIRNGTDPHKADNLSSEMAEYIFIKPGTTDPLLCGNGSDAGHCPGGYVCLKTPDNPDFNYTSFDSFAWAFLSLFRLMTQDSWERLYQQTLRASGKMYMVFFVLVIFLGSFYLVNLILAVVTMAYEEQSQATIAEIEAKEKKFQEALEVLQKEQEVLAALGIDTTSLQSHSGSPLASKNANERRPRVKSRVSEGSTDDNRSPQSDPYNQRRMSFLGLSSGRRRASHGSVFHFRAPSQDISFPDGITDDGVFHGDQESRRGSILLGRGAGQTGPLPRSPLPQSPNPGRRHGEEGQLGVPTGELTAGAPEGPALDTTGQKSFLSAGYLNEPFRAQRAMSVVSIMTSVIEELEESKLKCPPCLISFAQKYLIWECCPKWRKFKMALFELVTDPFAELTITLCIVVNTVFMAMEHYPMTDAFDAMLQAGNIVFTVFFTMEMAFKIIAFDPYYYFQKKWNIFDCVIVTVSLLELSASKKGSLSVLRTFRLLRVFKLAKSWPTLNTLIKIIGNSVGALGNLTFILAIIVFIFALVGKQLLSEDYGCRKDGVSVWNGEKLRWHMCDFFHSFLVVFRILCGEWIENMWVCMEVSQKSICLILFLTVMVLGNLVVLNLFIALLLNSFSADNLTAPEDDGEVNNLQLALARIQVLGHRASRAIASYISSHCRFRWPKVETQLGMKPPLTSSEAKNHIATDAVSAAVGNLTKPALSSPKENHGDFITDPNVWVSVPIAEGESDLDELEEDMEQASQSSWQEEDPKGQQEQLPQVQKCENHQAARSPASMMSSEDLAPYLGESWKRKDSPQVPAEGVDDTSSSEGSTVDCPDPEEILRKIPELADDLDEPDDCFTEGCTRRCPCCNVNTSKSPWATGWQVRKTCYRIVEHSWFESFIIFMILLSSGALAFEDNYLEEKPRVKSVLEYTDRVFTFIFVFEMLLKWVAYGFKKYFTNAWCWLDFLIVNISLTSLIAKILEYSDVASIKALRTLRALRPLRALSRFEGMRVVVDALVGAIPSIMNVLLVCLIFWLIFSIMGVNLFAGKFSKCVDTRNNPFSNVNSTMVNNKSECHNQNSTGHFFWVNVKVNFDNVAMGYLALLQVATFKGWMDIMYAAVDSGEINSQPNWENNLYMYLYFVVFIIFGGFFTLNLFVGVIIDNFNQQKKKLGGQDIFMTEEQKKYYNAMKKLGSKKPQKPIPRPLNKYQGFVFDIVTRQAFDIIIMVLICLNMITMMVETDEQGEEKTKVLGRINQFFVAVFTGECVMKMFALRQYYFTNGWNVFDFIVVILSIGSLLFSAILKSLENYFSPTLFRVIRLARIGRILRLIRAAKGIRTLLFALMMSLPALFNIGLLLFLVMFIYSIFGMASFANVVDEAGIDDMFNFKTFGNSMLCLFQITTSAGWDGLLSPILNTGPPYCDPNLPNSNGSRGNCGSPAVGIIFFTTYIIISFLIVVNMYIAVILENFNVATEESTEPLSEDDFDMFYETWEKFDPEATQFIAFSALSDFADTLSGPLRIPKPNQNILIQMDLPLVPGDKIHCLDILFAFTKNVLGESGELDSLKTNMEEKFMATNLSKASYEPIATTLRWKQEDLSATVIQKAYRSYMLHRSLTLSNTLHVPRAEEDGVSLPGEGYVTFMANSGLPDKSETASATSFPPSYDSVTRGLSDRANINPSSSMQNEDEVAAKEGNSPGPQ

[4] = Aqueous solubility of the compound; format: physicochemical; details: buffer
[5] = target: Sodium channel protein type 10 subunit alpha (Mus musculus, UniProt Q6QIY3); test: Inhibition of mouse NaV1.8 by isotopic flux assay
Chain of Sodium channel protein type 10 subunit alpha (Mus musculus, UniProt Q6QIY3) (Q6QIY3 whole entry): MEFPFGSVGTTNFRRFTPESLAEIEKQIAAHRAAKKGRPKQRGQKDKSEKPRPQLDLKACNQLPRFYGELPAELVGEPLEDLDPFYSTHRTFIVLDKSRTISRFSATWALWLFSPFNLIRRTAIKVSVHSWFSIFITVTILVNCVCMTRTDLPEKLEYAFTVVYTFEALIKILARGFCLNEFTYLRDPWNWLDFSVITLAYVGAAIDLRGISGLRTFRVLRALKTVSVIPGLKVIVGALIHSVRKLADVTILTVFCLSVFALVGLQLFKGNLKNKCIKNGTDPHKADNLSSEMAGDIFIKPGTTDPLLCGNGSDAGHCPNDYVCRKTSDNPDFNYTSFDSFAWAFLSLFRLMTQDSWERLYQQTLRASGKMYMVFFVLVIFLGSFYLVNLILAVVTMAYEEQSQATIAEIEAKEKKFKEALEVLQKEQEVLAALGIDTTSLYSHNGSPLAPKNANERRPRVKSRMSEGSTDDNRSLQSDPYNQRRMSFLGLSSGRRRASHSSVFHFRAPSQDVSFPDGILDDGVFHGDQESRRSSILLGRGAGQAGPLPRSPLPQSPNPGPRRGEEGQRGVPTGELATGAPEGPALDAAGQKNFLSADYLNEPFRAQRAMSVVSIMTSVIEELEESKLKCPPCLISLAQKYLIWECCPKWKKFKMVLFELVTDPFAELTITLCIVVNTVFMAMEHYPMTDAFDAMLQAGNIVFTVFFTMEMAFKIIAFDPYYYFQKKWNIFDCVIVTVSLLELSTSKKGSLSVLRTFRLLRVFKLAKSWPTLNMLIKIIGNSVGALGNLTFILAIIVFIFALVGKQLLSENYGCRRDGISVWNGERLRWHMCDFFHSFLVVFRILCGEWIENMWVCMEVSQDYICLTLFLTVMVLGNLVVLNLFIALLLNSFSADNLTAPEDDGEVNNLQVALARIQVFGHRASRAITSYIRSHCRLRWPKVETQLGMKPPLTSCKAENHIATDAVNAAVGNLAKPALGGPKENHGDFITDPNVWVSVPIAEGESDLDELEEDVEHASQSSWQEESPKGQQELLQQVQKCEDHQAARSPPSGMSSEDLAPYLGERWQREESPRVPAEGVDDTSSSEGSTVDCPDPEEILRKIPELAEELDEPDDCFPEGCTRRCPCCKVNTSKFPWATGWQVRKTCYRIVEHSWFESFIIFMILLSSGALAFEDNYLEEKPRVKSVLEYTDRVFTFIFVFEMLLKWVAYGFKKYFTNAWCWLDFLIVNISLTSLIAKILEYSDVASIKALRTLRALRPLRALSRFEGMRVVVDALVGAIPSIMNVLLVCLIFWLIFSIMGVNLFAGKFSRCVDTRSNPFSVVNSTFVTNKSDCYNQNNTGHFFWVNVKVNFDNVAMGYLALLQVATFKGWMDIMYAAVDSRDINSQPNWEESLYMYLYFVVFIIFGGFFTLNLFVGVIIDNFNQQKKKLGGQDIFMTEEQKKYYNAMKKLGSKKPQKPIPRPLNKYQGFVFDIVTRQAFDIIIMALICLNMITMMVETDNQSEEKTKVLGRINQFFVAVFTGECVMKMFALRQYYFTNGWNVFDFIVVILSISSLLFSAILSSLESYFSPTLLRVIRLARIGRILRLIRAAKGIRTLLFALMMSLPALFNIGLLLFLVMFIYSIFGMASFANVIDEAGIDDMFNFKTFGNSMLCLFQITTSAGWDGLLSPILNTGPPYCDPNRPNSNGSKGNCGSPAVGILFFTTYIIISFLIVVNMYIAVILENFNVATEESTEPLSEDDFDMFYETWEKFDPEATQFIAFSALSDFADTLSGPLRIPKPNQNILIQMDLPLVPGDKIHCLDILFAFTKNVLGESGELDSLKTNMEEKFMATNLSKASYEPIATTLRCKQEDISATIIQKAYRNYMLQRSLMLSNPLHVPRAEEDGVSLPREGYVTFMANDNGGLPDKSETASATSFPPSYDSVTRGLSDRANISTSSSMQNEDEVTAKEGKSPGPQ

[6] = Oral bioavailability in rat at 3 mg/kg; format: ADME, organism-based; details: in vivo
[7] = species on record: Homo sapiens; test: Selectivity ratio of IC50 for human NAv1.2 to IC50 for human Nav1.8
[8] = species on record: Homo sapiens; test: Selectivity ratio of IC50 for human ERG to IC50 for human Nav1.8
[9] = Intrinsic clearance in rat microsomes after 1 hr; format: ADME, Microsome
[10] = Intrinsic clearance in human microsomes; format: ADME, Microsome
[11] = target: Sodium channel protein type 5 subunit alpha (Homo sapiens, UniProt Q14524); test: Inhibition of human NaV1.5 by electrophysiology
[12] = target: Voltage-gated inwardly rectifying potassium channel KCNH2 (Homo sapiens, UniProt Q12809); test: Inhibition of human ERG by Isotopic flux assay
Chain of Voltage-gated inwardly rectifying potassium channel KCNH2 (Q12809 whole entry): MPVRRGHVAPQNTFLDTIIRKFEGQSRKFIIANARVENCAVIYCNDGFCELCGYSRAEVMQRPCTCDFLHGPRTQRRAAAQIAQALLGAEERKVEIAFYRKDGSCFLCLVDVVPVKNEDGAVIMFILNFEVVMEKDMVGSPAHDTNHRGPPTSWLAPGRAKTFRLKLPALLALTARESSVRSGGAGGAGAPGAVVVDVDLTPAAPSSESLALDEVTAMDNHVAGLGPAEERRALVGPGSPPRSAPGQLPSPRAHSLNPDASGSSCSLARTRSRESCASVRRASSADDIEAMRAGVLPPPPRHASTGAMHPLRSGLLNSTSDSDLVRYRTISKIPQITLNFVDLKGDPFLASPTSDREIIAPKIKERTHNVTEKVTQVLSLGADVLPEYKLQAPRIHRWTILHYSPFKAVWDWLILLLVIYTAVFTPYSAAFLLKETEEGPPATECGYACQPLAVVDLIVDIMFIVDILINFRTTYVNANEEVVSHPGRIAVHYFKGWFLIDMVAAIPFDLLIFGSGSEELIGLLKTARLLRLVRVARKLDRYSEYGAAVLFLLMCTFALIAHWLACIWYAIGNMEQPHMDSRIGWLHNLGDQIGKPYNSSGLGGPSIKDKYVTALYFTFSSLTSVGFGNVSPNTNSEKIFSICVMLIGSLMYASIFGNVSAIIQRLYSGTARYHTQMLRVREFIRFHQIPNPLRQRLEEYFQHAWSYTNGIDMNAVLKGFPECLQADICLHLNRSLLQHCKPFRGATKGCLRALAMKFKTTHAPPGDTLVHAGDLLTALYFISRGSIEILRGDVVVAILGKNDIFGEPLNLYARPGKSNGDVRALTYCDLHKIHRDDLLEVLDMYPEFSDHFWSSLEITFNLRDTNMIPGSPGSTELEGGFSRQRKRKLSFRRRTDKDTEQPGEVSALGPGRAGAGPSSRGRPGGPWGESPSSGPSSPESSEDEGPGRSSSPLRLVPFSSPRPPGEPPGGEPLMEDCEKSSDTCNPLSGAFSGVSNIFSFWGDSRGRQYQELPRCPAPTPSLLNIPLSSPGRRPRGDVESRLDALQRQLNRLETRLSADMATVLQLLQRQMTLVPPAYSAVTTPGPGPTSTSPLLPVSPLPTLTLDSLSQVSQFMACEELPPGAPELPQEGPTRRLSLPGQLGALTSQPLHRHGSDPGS

[13] = Cmax in rat; format: ADME, organism-based; details: in vivo
[14] = Plasma clearance in rat; format: ADME, organism-based
[15] = Volume of distribution at steady state in rat; format: ADME, organism-based; details: in vivo, read-out: Vdss
[16] = Ratio of drug level in brain to plasma in rat; format: ADME, cell-free; details: read-out: BPR
[17] = system: Plasma; test: (§1) Plasma protein binding in rat; format: ADME, cell-free
[18] = species on record: Rattus norvegicus; test: Analgesic activity in rat Chung model of neuropathic pain; format: functional
[19] = species on record: Rattus norvegicus; test: Analgesic activity in rat Chung model of neuropathic pain assessed as decrease in von Frey filament-induced pain; format: functional
[20] = Inhibition of chloride channel at 10 uM
[21] = target: Transient receptor potential cation channel subfamily V member 1 (Homo sapiens, UniProt Q8NER1); test: Inhibition of TRPV1
[22] = target: T1, P2X2/P2X3 heterotrimeric receptor (Homo sapiens, UniProt P56373+Q9UBL9); test: Inhibition of P2X2/3 receptor; format: protein-complex assay
T1 sequence (Q9UBL9 whole entry): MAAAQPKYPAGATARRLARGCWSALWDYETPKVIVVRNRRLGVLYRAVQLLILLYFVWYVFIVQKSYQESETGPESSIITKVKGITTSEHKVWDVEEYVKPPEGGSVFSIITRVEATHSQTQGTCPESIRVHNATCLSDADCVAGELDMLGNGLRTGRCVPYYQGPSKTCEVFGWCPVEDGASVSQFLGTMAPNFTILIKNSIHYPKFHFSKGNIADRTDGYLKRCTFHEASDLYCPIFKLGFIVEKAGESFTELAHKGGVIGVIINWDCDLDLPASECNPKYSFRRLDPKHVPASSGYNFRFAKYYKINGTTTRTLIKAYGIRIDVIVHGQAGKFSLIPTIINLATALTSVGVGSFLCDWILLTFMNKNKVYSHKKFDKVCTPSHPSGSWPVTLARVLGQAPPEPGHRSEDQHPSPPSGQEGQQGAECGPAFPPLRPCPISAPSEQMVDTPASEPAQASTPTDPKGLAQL
T1 sequence (P56373 whole entry): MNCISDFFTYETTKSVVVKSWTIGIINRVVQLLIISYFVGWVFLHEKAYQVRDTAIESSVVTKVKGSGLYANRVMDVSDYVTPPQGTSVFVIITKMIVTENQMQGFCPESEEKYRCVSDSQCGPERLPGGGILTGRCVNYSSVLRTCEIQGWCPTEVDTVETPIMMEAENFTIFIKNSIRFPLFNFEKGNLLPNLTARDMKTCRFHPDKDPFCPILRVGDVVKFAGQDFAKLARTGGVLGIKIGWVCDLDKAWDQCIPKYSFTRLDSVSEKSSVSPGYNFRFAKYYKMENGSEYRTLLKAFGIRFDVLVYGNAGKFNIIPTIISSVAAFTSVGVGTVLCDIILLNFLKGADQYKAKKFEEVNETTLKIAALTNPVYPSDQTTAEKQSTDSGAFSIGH

[23] = target: Voltage-dependent N-type calcium channel subunit alpha-1B (Homo sapiens, UniProt Q00975); test: Inhibition of CaV2.2
[24] = target: Voltage-gated potassium channel, KQT; KCNQ2(Kv7.2)/KCNQ3(Kv7.3) (Homo sapiens, UniProt O43525+O43526); test: Inhibition of KCNQ2/Q3; format: protein-complex assay
[25] = as §1; format: ADME, cell-free; details: read-out: PPB (converted)
[26] = Inhibition of benzodiazepine receptor at 10 uM

Row | SMILES | IC50 [1] [nM] | IC50 [2] [nM] | IC50 [3] [nM] | IC50 [5] [nM] | Ratio IC50 [7] | Ratio IC50 [8] | also measured
1 | O=C(NCc1cccnc1N1CCOCC1)c1cncc(-c2ccc(Cl)cc2)c1 | 87 | 1600 | 98 | 340 |  |  | solubility [4]: > 50 µg/mL
2 | O=C(NCc1ccccc1N1CCCCC1)c1cncc(-c2ccc(Cl)cc2)c1 | 8 | 50 | 45 | < 30 |  |  | 
3 | COc1cc(NC(=O)c2ccc(-c3ccc(Cl)cc3)o2)cc(OC)c1 |  |  | 125 |  | 100 |  | solubility [4]: < 0.1 µg/mL; bioavailability [6]: 10%
4 | Cc1cc(C)cc(NC(=O)c2cncc(-c3ccc(OC(F)(F)F)cc3)c2)c1 | 26 |  | 97 | 530 | > 30 | > 30 | 
5 | Cc1cc(C)cc(NC(=O)c2csc(-c3ccc(OC(F)(F)F)cc3)n2)c1 | 51 |  | 380 | 400 | > 30 | > 30 | microsomal CLint [9]: > 300 µL/min/mg; microsomal CLint [10]: > 300 µL/min/mg
6 | Cc1cc(C)cc(NC(=O)c2cncc(-c3ccc(OC(F)(F)F)cc3)n2)c1 | 21 |  | 34 | 57 | > 30 | > 30 | 
7 | O=C(NCc1cccnc1OCC(F)(F)F)c1cncc(-c2ccc(Cl)cc2)c1 | 3 | 2800 | 28 | 87 |  |  | IC50 [11]: 4.7 µM; IC50 [12]: 19 µM; microsomal CLint [9]: 68 µL/min/mg; solubility [4]: 3.1 µg/mL (≈ 7.35 µM); bioavailability [6]: 95%; Cmax [13]: 350 ng/mL; clearance [14]: 10 mL/min/kg; Vd [15]: 2 L/kg; Kp [16]: 1; PPB [17]: 98.7%; ED50 [18]: 65 mg/kg; Emax [19]: 66%; inhibition [20]: > 70%; IC50 [21]: > 10 µM; IC50 [22]: > 10 µM; IC50 [23]: > 10 µM; IC50 [24]: > 10 µM
8 | Cc1ncccc1CNC(=O)c1cncc(-c2ccc(Cl)cc2)c1 |  |  |  | 2600 |  |  | 
9 | O=C(NCc1ccccc1N1CCOCC1)c1cncc(-c2ccc(Cl)cc2)c1 | 10 | 120 | 130 | 32 |  |  | 
10 | Cc1ccccc1CNC(=O)c1cncc(-c2ccc(Cl)cc2)c1 | 2 | 110 | 9 | < 30 |  |  | 
11 | Cc1cc(C)cc(NC(=O)c2nsc(-c3ccc(OC(F)(F)F)cc3)n2)c1 | 8 |  | 520 | 280 | > 30 | > 30 | microsomal CLint [9]: > 300 µL/min/mg; microsomal CLint [10]: > 300 µL/min/mg
12 | Cc1cc(C)cc(NC(=O)c2nc(-c3ccc(OC(F)(F)F)cc3)no2)c1 | 470 |  | 820 | 870 | > 30 | > 30 | 
13 | CCOc1ncccc1CNC(=O)c1cncc(-c2ccc(Cl)cc2)c1 | 7 | 670 | 32 | 88 |  |  | 
14 | Cc1cc(C)cc(NC(=O)c2cncc(-c3ccc(F)cc3)c2)c1 | 100 |  | 210 | 1900 | > 30 | > 30 | 
15 | O=C(NCc1cccnc1N1CCCCC1)c1cncc(-c2ccc(Cl)cc2)c1 | 14 | 70 | 8 | 26 |  |  | 
16 | O=C(NCc1cccnc1Cl)c1cncc(-c2ccc(Cl)cc2)c1 | 140 | 18000 | 560 | 680 |  |  | 
17 | O=C(NCc1ccccc1Cl)c1cncc(-c2ccc(Cl)cc2)c1 | 4 | 1200 | 66 | 81 |  |  | 
18 | Cc1cc(C)cc(NC(=O)c2ccnc(-c3ccc(OC(F)(F)F)cc3)c2)c1 | 780 |  |  | 11000 | > 30 | > 30 | 
19 | Cc1cc(C)cc(NC(=O)c2coc(-c3ccc(OC(F)(F)F)cc3)n2)c1 | 180 |  | 2000 | 1400 | > 30 | > 30 | 
20 | Cc1cc(C)cc(NC(=O)c2cccc(-c3ccc(OC(F)(F)F)cc3)n2)c1 | 64 |  | 510 | 1500 | > 30 | > 30 | 
21 | Cc1cc(C)cc(NC(=O)c2ccc(-c3ccc(OC(F)(F)F)cc3)o2)c1 | 2 |  | 130 | 290 | > 30 | > 30 | 
22 | O=C(NCc1ccccc1)c1cncc(-c2ccc(Cl)cc2)c1 | 22 | 1900 | 85 | 620 |  |  | 
23 | Cc1cc(C)cc(NC(=O)c2cnc(-c3ccc(OC(F)(F)F)cc3)o2)c1 | 280 |  | 950 | 340 | > 30 | > 30 | 
24 | Cc1cc(C)cc(NC(=O)c2cncc(-c3ccc(C#N)cc3)c2)c1 | 23 |  | 91 | 190 | > 30 | > 30 | IC50 [11]: > 30 µM; IC50 [12]: 16 µM; microsomal CLint [9]: 270 µL/min/mg; solubility [4]: 1.4 µg/mL (≈ 4.28 µM); bioavailability [6]: 17%; Cmax [13]: 740 ng/mL; clearance [14]: 16.7 mL/min/kg; Vd [15]: 0.5 L/kg; Kp [16]: 1.3; fraction unbound [25]: 0.005; ED50 [18]: 72 mg/kg; Emax [19]: 60%; inhibition [26]: > 70%; IC50 [21]: > 10 µM; IC50 [22]: > 10 µM; IC50 [23]: > 10 µM; IC50 [24]: > 10 µM
25 | Cc1cc(C)cc(NC(=O)c2cncc(-c3ccc(Cl)cc3)c2)c1 | 9 |  | 87 | 610 | > 30 | > 30 | 
26 | O=C(NCc1cccnc1)c1cncc(-c2ccc(Cl)cc2)c1 |  |  |  | 7900 |  |  | 
